# In patent US11000033B2, “Ketone or oxime compound, and herbicide” (NISSAN CHEMICAL CORPORATION, priority 2014, dated 2021):
# Tests used:
# Type in all cases: in vivo
# Apera spica-venti [1] = experiment: Test Example 4: herbicidal effect by soil treatment (symbol L); details: 320 g/ha
# Summary of the method: (§1)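 Seeds were sown in sterilized diluvial soil, covered with about 1.5 cm of soil, and the soil surface was sprayed with a water-diluted emulsion of the compound at a predetermined rate. Plants grew in a greenhouse at 25° C. to 30° C.; effects were scored visually 3 weeks after application.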
# Setaria viridis = experiment: Test Example 4: herbicidal effect by soil treatment (symbol G); details: 320 g/ha
# Summary of the method: as §1
# Digitaria ciliaris = experiment: Test Example 4: herbicidal effect by soil treatment (symbol F); details: 320 g/ha
# Summary of the method: as §1
# soybean = experiment: Test Example 4: effect on crop by soil treatment (symbol d); details: 320 g/ha
# Summary of the method: (§2)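 Crop seeds, among them rice, wheat, beet and rapeseed, were sown in sterilized diluvial soil and covered with about 1.5 cm of soil. Boxes were kept in a greenhouse at 25° C. to 30° C. for plant growth.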
# Monochoria vaginalis = experiment: Test Example 2: herbicidal activity, application during weed generation in submerged conditions (symbol C); details: Table 23; application herbicide amount 320 g/ha; grade 0-5 by criteria of Test Example 1
# Summary of the method: (§3)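 Submerged alluvial soil (4 cm) sown with mixed seed; greenhouse 25–30° C. 1–2 leaf: diluted emulsion onto water surface, preset dose. Visual score, 3 wk.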
# Galium spurium = experiment: Test Example 4: herbicidal effect by soil treatment (symbol Q); details: 320 g/ha
# Summary of the method: as §1
# [2] = tested on: Echinochloa oryzacola Vasing.; experiment: Test Example 2: herbicidal activity, application during weed generation in submerged conditions (symbol A); details: Table 23; application herbicide amount 320 g/ha; grade 0-5 by criteria of Test Example 1
# Summary of the method: as §3
# Veronica persica = experiment: Test Example 5: herbicidal effect by foliage application, plastic box (symbol R); details: 320 g/ha, 3 weeks after application
# Summary of the method: (§4)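 Effect is rated 3 weeks after a foliar spray of water-diluted emulsion concentrate at a predetermined herbicide amount. Plants had grown 14 days in a 25° C. to 30° C. greenhouse from seed in sterilized diluvial soil.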
# Lolium multiflorum Lam. = experiment: Test Example 4: herbicidal effect by soil treatment (symbol K); details: 320 g/ha
# Summary of the method: as §1
# Chenopodium album [3] = experiment: Test Example 4: herbicidal effect by soil treatment (symbol O); details: 320 g/ha
# Summary of the method: as §1
# Apera spica-venti [4] = experiment: Test Example 5: herbicidal effect by foliage application, plastic box (symbol L); details: 320 g/ha, 3 weeks after application
# Summary of the method: as §4
# Avena fatua = experiment: Test Example 5: herbicidal effect by foliage application, plastic box (symbol I); details: 320 g/ha, 3 weeks after application
# Summary of the method: as §4
# Abutilon theophrasti [5] = experiment: Test Example 4: herbicidal effect by soil treatment (symbol M); details: 320 g/ha
# Summary of the method: as §1
# beet = experiment: Test Example 4: effect on crop by soil treatment (symbol f); details: 320 g/ha
# Summary of the method: as §2
# [6] = tested on: Echinochloa crus-galli var. crus-galli; experiment: Test Example 3: herbicidal effect by foliage application, Wagner pot (symbol H); details: application herbicide amount 320 g/ha
# Summary of the method: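 Steps: fill pot with alluvial soil; add water to 0.1–0.5 cm depth; sow weed and rice seed; grow 14 days at 25–30 °C; spray diluted emulsion over the leaves; rate effect after 3 weeks.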
# Chenopodium album [7] = experiment: Test Example 5: herbicidal effect by foliage application, plastic box (symbol O); details: 320 g/ha, 3 weeks after application
# Summary of the method: as §4
# Abutilon theophrasti [8] = experiment: Test Example 5: herbicidal effect by foliage application, plastic box (symbol M); details: 320 g/ha, 3 weeks after application
# Summary of the method: as §4
# Stellaria media = experiment: Test Example 5: herbicidal effect by foliage application, plastic box (symbol P); details: 320 g/ha, 3 weeks after application
# Summary of the method: as §4
# rice plant = experiment: Test Example 5: effect on crop by foliage application, plastic box (symbol b); details: 320 g/ha, 3 weeks after application
# Summary of the method: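 In a plastic box 7 cm deep filled with sterilized diluvial soil, seeds of crops and weeds such as Digitaria ciliaris, Avena fatua and Amaranthus retroflexus are sown in spots and covered with about 1.5 cm of soil before greenhouse growth at 25–30° C.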
SMILES,"L: Apera spica-venti, herbicidal effect grade (Apera spica-venti [1])","G: Setaria viridis, herbicidal effect grade (Setaria viridis)","F: Digitaria ciliaris, herbicidal effect grade (Digitaria ciliaris)","d: soybean, effect grade on crop (soybean)","Herbicidal effect grade, C: Monochoria vaginalis (Monochoria vaginalis)","Q: Galium spurium, herbicidal effect grade (Galium spurium)","Herbicidal effect grade, A: Echinochloa oryzacola Vasing. [2]","R: Veronica persica, herbicidal effect (criteria 0-5) (Veronica persica)","K: Lolium multiflorum Lam., herbicidal effect grade (Lolium multiflorum Lam.)","O: Chenopodium album, herbicidal effect grade (Chenopodium album [3])","L: Apera spica-venti, herbicidal effect (criteria 0-5) (Apera spica-venti [4])","I: Avena fatua, herbicidal effect (criteria 0-5) (Avena fatua)","M: Abutilon theophrasti, herbicidal effect grade (Abutilon theophrasti [5])","f: beet, effect grade on crop (beet)","herbicidal effect on H (Echinochloa crus-galli var. crus-galli), grade 0-5 [6]","O: Chenopodium album, herbicidal effect (criteria 0-5) (Chenopodium album [7])","M: Abutilon theophrasti, herbicidal effect (criteria 0-5) (Abutilon theophrasti [8])","P: Stellaria media, herbicidal effect (criteria 0-5) (Stellaria media)","b: directly sowed rice plant, effect on crop (criteria 0-5) (rice plant)"
CC(CC1CC(O)=C(c2c(C)cc(C)cc2C)C1=O)=NOCC(N)=O (stereo not shown) [1-124],0 (Herbicidal ratio of 5% or lower (almost no effect)),3 (Herbicidal ratio of 40% or higher and lower than 70%),0 (Herbicidal ratio of 5% or lower (almost no effect)),0 (Herbicidal ratio of 5% or lower (almost no effect)),0 (Herbicidal ratio of 5% or lower (almost no effect)),0 (Herbicidal ratio of 5% or lower (almost no effect)),2 (Herbicidal ratio of 20% or higher and lower than 40%),0 (Herbicidal ratio of 5% or lower (almost no effect)),3 (Herbicidal ratio of 40% or higher and lower than 70%),0 (Herbicidal ratio of 5% or lower (almost no effect)),3 (Herbicidal ratio of 40% or higher and lower than 70%),2 (Herbicidal ratio of 20% or higher and lower than 40%),0 (Herbicidal ratio of 5% or lower (almost no effect)),0 (Herbicidal ratio of 5% or lower (almost no effect)),5 (Herbicidal ratio of 90% or more (almost completely withered)),3 (Herbicidal ratio of 40% or higher and lower than 70%),0 (Herbicidal ratio of 5% or lower (almost no effect)),2 (Herbicidal ratio of 20% or higher and lower than 40%),3 (Herbicidal ratio of 40% or higher and lower than 70%)
CC(CC1CC(O)=C(c2c(C)cc(C)cc2C)C1=O)=NOCC[S+](C)[O-] (stereo not shown) [1-125],5 (Herbicidal ratio of 90% or more (almost completely withered)),5 (Herbicidal ratio of 90% or more (almost completely withered)),5 (Herbicidal ratio of 90% or more (almost completely withered)),0 (Herbicidal ratio of 5% or lower (almost no effect)),0 (Herbicidal ratio of 5% or lower (almost no effect)),0 (Herbicidal ratio of 5% or lower (almost no effect)),2 (Herbicidal ratio of 20% or higher and lower than 40%),2 (Herbicidal ratio of 20% or higher and lower than 40%),5 (Herbicidal ratio of 90% or more (almost completely withered)),0 (Herbicidal ratio of 5% or lower (almost no effect)),5 (Herbicidal ratio of 90% or more (almost completely withered)),5 (Herbicidal ratio of 90% or more (almost completely withered)),0 (Herbicidal ratio of 5% or lower (almost no effect)),0 (Herbicidal ratio of 5% or lower (almost no effect)),5 (Herbicidal ratio of 90% or more (almost completely withered)),1 (Herbicidal ratio of 5% or higher and lower than 20%),0 (Herbicidal ratio of 5% or lower (almost no effect)),2 (Herbicidal ratio of 20% or higher and lower than 40%),5 (Herbicidal ratio of 90% or more (almost completely withered))
CON=C(C)CC1CC(OC(=O)CN(C)C(=O)c2ccccc2)=C(c2c(C)cc(C)cc2C)C1=O (stereo not shown) [1-139],5 (Herbicidal ratio of 90% or more (almost completely withered)),5 (Herbicidal ratio of 90% or more (almost completely withered)),5 (Herbicidal ratio of 90% or more (almost completely withered)),0 (Herbicidal ratio of 5% or lower (almost no effect)),1 (Herbicidal ratio of 5% or higher and lower than 20%),0 (Herbicidal ratio of 5% or lower (almost no effect)),5 (Herbicidal ratio of 90% or more (almost completely withered)),2 (Herbicidal ratio of 20% or higher and lower than 40%),5 (Herbicidal ratio of 90% or more (almost completely withered)),0 (Herbicidal ratio of 5% or lower (almost no effect)),5 (Herbicidal ratio of 90% or more (almost completely withered)),5 (Herbicidal ratio of 90% or more (almost completely withered)),4 (Herbicidal ratio of 70% or higher and lower than 90%),0 (Herbicidal ratio of 5% or lower (almost no effect)),5 (Herbicidal ratio of 90% or more (almost completely withered)),1 (Herbicidal ratio of 5% or higher and lower than 20%),2 (Herbicidal ratio of 20% or higher and lower than 40%),3 (Herbicidal ratio of 40% or higher and lower than 70%),5 (Herbicidal ratio of 90% or more (almost completely withered))
CCC(Oc1ccc2ncc(Br)cc2c1)C(=O)OC1=C(c2c(C)cc(C)cc2C)C(=O)C(CC(C)=NOC)C1 (stereo not shown) [1-140],5 (Herbicidal ratio of 90% or more (almost completely withered)),5 (Herbicidal ratio of 90% or more (almost completely withered)),5 (Herbicidal ratio of 90% or more (almost completely withered)),1 (Herbicidal ratio of 5% or higher and lower than 20%),3 (Herbicidal ratio of 40% or higher and lower than 70%),0 (Herbicidal ratio of 5% or lower (almost no effect)),5 (Herbicidal ratio of 90% or more (almost completely withered)),3 (Herbicidal ratio of 40% or higher and lower than 70%),5 (Herbicidal ratio of 90% or more (almost completely withered)),0 (Herbicidal ratio of 5% or lower (almost no effect)),5 (Herbicidal ratio of 90% or more (almost completely withered)),5 (Herbicidal ratio of 90% or more (almost completely withered)),5 (Herbicidal ratio of 90% or more (almost completely withered)),0 (Herbicidal ratio of 5% or lower (almost no effect)),5 (Herbicidal ratio of 90% or more (almost completely withered)),2 (Herbicidal ratio of 20% or higher and lower than 40%),4 (Herbicidal ratio of 70% or higher and lower than 90%),3 (Herbicidal ratio of 40% or higher and lower than 70%),5 (Herbicidal ratio of 90% or more (almost completely withered))
